The target of this assay is T1, human GRIN1 (transcript variant NR1-3) and GRIN2D expressed in Xenopus oocytes (Homo sapiens, UniProt O15399).
T1 construct: GenScript (GRIN2D synthesis) SC115601; host or cells: Xenopus oocytes injected with cRNA (1 GluN1 : 2 GluN2)
T1 sequence (O15399 28-1336, other chains not shown): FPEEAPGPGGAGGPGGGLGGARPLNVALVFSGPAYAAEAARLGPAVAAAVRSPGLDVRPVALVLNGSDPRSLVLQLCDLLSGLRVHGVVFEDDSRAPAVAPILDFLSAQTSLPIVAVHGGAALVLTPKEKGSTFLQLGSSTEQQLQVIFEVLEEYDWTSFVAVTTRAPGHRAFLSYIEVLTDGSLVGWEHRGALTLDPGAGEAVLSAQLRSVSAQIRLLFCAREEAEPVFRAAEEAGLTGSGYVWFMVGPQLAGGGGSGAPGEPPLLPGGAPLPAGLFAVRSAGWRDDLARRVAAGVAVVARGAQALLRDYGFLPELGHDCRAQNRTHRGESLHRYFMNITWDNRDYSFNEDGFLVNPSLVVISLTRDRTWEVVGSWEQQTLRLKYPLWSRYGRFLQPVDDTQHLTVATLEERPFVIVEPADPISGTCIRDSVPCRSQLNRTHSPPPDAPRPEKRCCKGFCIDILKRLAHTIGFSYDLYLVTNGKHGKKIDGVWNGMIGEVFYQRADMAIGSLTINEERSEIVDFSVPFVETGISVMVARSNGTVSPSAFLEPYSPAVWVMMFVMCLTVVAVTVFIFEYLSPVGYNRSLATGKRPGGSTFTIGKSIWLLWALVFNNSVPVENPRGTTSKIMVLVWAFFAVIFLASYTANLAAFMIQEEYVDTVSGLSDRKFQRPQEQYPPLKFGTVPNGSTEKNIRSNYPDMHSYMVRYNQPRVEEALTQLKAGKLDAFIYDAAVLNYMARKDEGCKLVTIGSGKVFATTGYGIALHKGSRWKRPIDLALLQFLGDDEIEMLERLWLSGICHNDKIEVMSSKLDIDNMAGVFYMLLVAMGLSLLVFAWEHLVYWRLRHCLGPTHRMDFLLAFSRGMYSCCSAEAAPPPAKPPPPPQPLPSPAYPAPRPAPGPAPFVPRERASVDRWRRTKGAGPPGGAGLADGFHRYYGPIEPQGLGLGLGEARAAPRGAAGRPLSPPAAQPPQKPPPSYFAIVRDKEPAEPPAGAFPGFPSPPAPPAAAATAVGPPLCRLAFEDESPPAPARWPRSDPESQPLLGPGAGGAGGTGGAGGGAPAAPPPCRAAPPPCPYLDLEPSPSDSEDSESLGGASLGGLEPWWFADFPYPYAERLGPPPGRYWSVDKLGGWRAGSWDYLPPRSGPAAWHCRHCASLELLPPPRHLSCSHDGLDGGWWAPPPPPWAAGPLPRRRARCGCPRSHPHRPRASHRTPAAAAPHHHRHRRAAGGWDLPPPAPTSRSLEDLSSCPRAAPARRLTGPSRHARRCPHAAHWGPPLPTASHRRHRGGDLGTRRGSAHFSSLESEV
The assay can be described thus: NR2D oocyte potentiation assay (two-electrode voltage clamp). The conditions noted are these: 10 uM test compound; glutamate and glycine 10 μM each; holding potential −40 mV. The class given is cell-based. The method, boiled down:
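Xenopus oocytes were defolliculated with collagenase, then injected with 50 nL of cRNA encoding human GluN1 (NR1-3 variant) and GluN2D mixed 1:2 and kept 72 h at 16° C. Two-electrode voltage clamp at −40 mV recorded currents; after 10 μM glutamate plus 10 μM glycine reached plateau, test compound was added until a new plateau formed.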
(Two-electrode voltage clamp is typically applied to oocytes expressing channels or transporters.)
Regarding `CC1CSc2nc(-c3ccc(C(C)(C)C#N)nc3)c(C#N)c(=O)n2C1` (stereo not shown) [Example 79, 8-[6-(1-cyano-1-methylethyl)pyridin-3-yl]-3-methyl-6-oxo-2H,3H,4H,6H-pyrimido[2,1-b] [1,3]thiazine-7-carbonitrile], the activation at 10 µM lay in the range of 100 to 500%.
The same measure, in the same setting: to `CC(C)(C)c1ccc(-c2nc3n(c(=O)c2Br)CCCC3)cn1` [Example 15, 3-bromo-2-(6-tert-butylpyridin-3-yl)-4H,6H, 7H,8H,9H-pyrido[1,2-a] pyrimidin-4-one] belongs 10 to 100%; to `CN(C)CC1CSc2nc(-c3cnc(C(C)(C)C)c(F)c3)c(C#N)c(=O)n2C1` (stereo not shown) [Example 160, 8-(6-(tert-butyl)-5-fluoropyridin-3-yl)-3-((dimethylamino)methyl)-6-oxo-3,4-dihydro-2H,6H-pyrimido[2,1-b][1,3]thiazine-7-carbonitrile], 10 to 100%.
Take `CC1CSc2nc(-c3ccc(C45CC(C4)C5)nc3C34CC(C3)C4)c(C#N)c(=O)n2C1` (stereo not shown) [Example 150, 8-(2,6-di(bicyclo[1.1.1]pentan-1-yl)pyridin-3-yl)-3-methyl-6-oxo-3,4-dihydro-2H,6H-pyrimido[2,1-b][1,3]thiazine-7-carbonitrile]: the “NR2D Oocyte % Potentiation @ 10 uM” value is “Inhibitor”.
Consider `C=Cc1c(-c2ccc(C(C)(C)C)cc2)nc2n(c1=O)CCCS2` [Example 32, 8-(4-(tert-butyl)phenyl)-7-vinyl-3,4-dihydro-2H,6H-pyrimido[2,1-b][1,3]thiazin-6-one], for which the activation at 10 µM was 10 to 100%.
Still for that read-out and setting: to `CC(C)(C)c1ccc(-c2nc3ccccn3c(=O)c2C#N)cn1` [Example 19, 2-(6-(tert-butyl)pyridin-3-yl)-4-oxo-4H-pyrido[1,2-a]pyrimidine-3-carbonitrile] belongs 100 to 500%.
With `C[C@H]1CSc2nc(-c3ccc(C(C)(C)N(C)C)nc3)c(C#N)c(=O)n2C1` [Example 133, (R)-8-(6-(2-(dimethylamino)propan-2-yl)pyridin-3-yl)-3-methyl-6-oxo-3,4-dihydro-2H,6H-pyrimido[2,1-b][1,3]thiazine-7-carbonitrile], the “NR2D Oocyte % Potentiation @ 10 uM” value is “Inhibitor”.
`CNC(=O)C1CSc2nc(-c3cnc(C(C)(C)C)c(F)c3)c(C#N)c(=O)n2C1` (stereo not shown) [Example 163, 8-(6-(tert-butyl)-5-fluoropyridin-3-yl)-7-cyano-N-methyl-6-oxo-3,4-dihydro-2H,6H-pyrimido[2,1-b][1,3]thiazine-3-carboxamide]: the activation at 10 µM is over 1000%.
`CCOC(=O)c1ccc(-c2nc3n(c(=O)c2C#N)CCCS3)cn1` [Example 82, ethyl 5-(7-cyano-6-oxo-3,4-dihydro-2H,6H-pyrimido[2,1-b][1,3]thiazin-8-yl)picolinate]: the “NR2D Oocyte % Potentiation @ 10 uM” value is on record as “Inhibitor”.
`CCOC(=O)NCC1CSc2nc(-c3cnc(C(C)(C)C)c(F)c3)c(C#N)c(=O)n2C1` (stereo not shown) [Example 147, ethyl ((8-(6-(tert-butyl)-5-fluoropyridin-3-yl)-7-cyano-6-oxo-3,4-dihydro-2H,6H-pyrimido[2,1-b][1,3]thiazin-3-yl)methyl)carbamate]: the activation at 10 µM was over 1000%.
On to `CCN1CSc2nc(-c3cnc(C(C)(C)C)nc3)c(C#N)c(=O)n2C1` [Example 11, 8-(2-(tert-butyl)pyrimidin-5-yl)-3-ethyl-6-oxo-3,4-dihydro-2H,6H-pyrimido[2,1-b][1,3,5]thiadiazine-7-carbonitrile], for which the activation at 10 µM was 10 to 100%.
The same measure, in the same setting: to `COC[C@H]1CSc2nc(-c3cnc(C(C)(C)C)c(F)c3)c(C#N)c(=O)n2C1` [Example 166, (S)-8-(6-(tert-butyl)-5-fluoropyridin-3-yl)-3-(methoxymethyl)-6-oxo-3,4-dihydro-2H,6H-pyrimido[2,1-b][1,3]thiazine-7-carbonitrile] belongs over 1000%; to `C[C@H]1CSc2nc(-c3ccc(C4(C)CC4)nc3)c(C#N)c(=O)n2C1` [Example 115, (R)-3-methyl-8-(6-(1-methylcyclopropyl)pyridin-3-yl)-6-oxo-3,4-dihydro-2H,6H-pyrimido[2,1-b][1,3]thiazine-7-carbonitrile], 100 to 500%; to `C[C@H]1CSc2nc(-c3cnc(C(C)(C)C)nc3)c(C#N)c(=O)n2C1` [Example 73, (R)-8-(2-(tert-butyl)pyrimidin-5-yl)-3-methyl-6-oxo-3,4-dihydro-2H,6H-pyrimido[2,1-b][1,3]thiazine-7-carbonitrile], over 1000%.
Still for that read-out and setting: next, `CC(C)(C)OC(=O)NCC1CSc2nc(-c3ccc(C(C)(C)C)nc3)c(C#N)c(=O)n2C1` (stereo not shown) [Example 144, tert-butyl ((8-(6-(tert-butyl)pyridin-3-yl)-7-cyano-6-oxo-3,4-dihydro-2H,6H-pyrimido[2,1-b][1,3]thiazin-3-yl)methyl)carbamate]: over 1000%.
Same read-out and setting: next, `COc1cc(-c2nc3n(c(=O)c2C#N)CCCS3)cnc1C(C)(C)C` [Example 60, 8-(6-(tert-butyl)-5-methoxypyridin-3-yl)-6-oxo-3,4-dihydro-2H,6H-pyrimido[2,1-b][1,3]thiazine-7-carbonitrile]: 500 to 1000%.
As to `C[C@@H]1CSc2cc(-c3cnc(C(C)(C)C)nc3)c(C#N)c(=O)n2C1` [Example 105, (S)-8-(2-(tert-butyl)pyrimidin-5-yl)-3-methyl-6-oxo-3,4-dihydro-2H,6H-pyrido[2,1-b][1,3]thiazine-7-carbonitrile], the activation at 10 µM was over 1000%.
Same read-out and setting: next, `CC(C)(C)c1ccc(-c2nc3n(c(=O)c2C#N)C[C@H](CF)CS3)cn1` [Example 132, (R)-8-(6-(tert-butyl)pyridin-3-yl)-3-(fluoromethyl)-6-oxo-3,4-dihydro-2H,6H-pyrimido[2,1-b][1,3]thiazine-7-carbonitrile]: 100 to 500%; `CC1CSc2nc(-c3cnc(C(C)(C)C)c(F)c3)c(C#N)c(=N)n2C1` (stereo not shown) [Example 41, 8-(6-(tert-butyl)-5-fluoropyridin-3-yl)-6-imino-3-methyl-3,4-dihydro-2H,6H-pyrimido[2,1-b][1,3]thiazine-7-carbonitrile]: over 1000%; `COc1cc(-c2nc3n(c(=O)c2C#N)CC(C)CS3)cnc1C(C)(C)C` (stereo not shown) [Example 59, 8-(6-(tert-butyl)-5-methoxypyridin-3-yl)-3-methyl-6-oxo-3,4-dihydro-2H,6H-pyrimido[2,1-b][1,3]thiazine-7-carbonitrile]: over 1000%.
With `CC(C)(C)c1ncc(-c2nc3n(c(=O)c2C#N)C[C@H](CO)CS3)cc1F` [Example 158, (R)-8-(6-(tert-butyl)-5-fluoropyridin-3-yl)-3-(hydroxymethyl)-6-oxo-3,4-dihydro-2H,6H-pyrimido[2,1-b][1,3]thiazine-7-carbonitrile], the activation at 10 µM was over 1000%.
Same read-out and setting: next, `CSCC1COc2nc(-c3cnc(C(C)(C)C)c(F)c3)c(C#N)c(=O)n2C1` (stereo not shown) [Example 164, 8-(6-(tert-butyl)-5-fluoropyridin-3-yl)-3-((methylthio)methyl)-6-oxo-3,4-dihydro-2H,6H-pyrimido[2,1-b][1,3]oxazine-7-carbonitrile]: 10 to 100%; `CC(C)(C)c1ncc(-c2nc3n(c(=O)c2C#N)CC(F)CS3)cn1` (stereo not shown) [Example 17, 8-(2-tert-butylpyrimidin-5-yl)-3-fluoro-6-oxo-2H,3H, 4H,6H-pyrimido [2,1-b][1,3] thiazine-7-carbonitrile]: 100 to 500%; `CC(C)(C)c1ccc(-c2nc3sccn3c(=O)c2C#N)cn1` [Example 3, 7-(6-(tert-butyl)pyridin-3-yl)-5-oxo-5H-thiazolo[3,2-a]pyrimidine-6-carbonitrile]: 100 to 500%.
Same read-out and setting: next, `CC(C)(C)c1ccc(-c2nc3n(c(=O)c2C#N)CN(c2ccccc2)CS3)cc1` [Example 5, 8-(4-(tert-butyl)phenyl)-6-oxo-3-phenyl-3,4-dihydro-2H,6H-pyrimido[2,1-b][1,3,5]thiadiazine-7-carbonitrile]: 10 to 100%.
The same measure, in the same setting: next, `CC(C)(C)c1ccc(-c2cc3n(c(=O)c2C#N)CCCS3)cc1` [Example 68, 8-(4-(tert-butyl)phenyl)-6-oxo-3,4-dihydro-2H,6H-pyrido[2,1-b][1,3]thiazine-7-carbonitrile]: over 1000%; `CC1(c2ccc(-c3nc4n(c(=O)c3C#N)CCCS4)cn2)COC1` [Example 154, 8-(6-(3-methyloxetan-3-yl)pyridin-3-yl)-6-oxo-3,4-dihydro-2H,6H-pyrimido[2,1-b][1,3]thiazine-7-carbonitrile]: 10 to 100%.
On to `CC1CSc2nc(-c3ccc(N4CC(F)(F)C4)nc3)c(C#N)c(=O)n2C1` (stereo not shown) [Example 56, 8-(6-(3,3-difluoroazetidin-1-yl)pyridin-3-yl)-3-methyl-6-oxo-3,4-dihydro-2H,6H-pyrimido[2,1-b][1,3]thiazine-7-carbonitrile], for which the “NR2D Oocyte % Potentiation @ 10 uM” value was “Inhibitor”.
As for `CC(C)(C)c1ccc(-c2nc3n(c(=O)c2C#N)C[C@@H](CF)CS3)cn1` [Example 131, (S)-8-(6-(tert-butyl)pyridin-3-yl)-3-(fluoromethyl)-6-oxo-3,4-dihydro-2H,6H-pyrimido[2,1-b][1,3]thiazine-7-carbonitrile], the activation at 10 µM is over 1000%.
Same read-out and setting: to `CC(=O)NC[C@H]1CSc2nc(-c3cnc(C(C)(C)C)c(F)c3)c(C#N)c(=O)n2C1` [Example 168, (R)-N-((8-(6-(tert-butyl)-5-fluoropyridin-3-yl)-7-cyano-6-oxo-3,4-dihydro-2H,6H-pyrimido[2,1-b][1,3]thiazin-3-yl)methyl)acetamide] belongs 500 to 1000%; to `CC(C)(C)c1ccc(-c2nc3n(c(=O)c2C#N)CCCO3)cn1` [Example 77, 8-(6-(tert-butyl)pyridin-3-yl)-6-oxo-3,4-dihydro-2H,6H-pyrimido[2,1-b][1,3]oxazine-7-carbonitrile], 10 to 100%.

(Values after US11807650B2, “NMDA receptor modulators and uses thereof” (Novartis AG, priority 2016, dated 2023).)
